# Source: article PMC7179419 (Molecules, 2020)
# Where two headings read alike, the source gives them in different places.
# Assays:
# [1] = tested on: human breast adenocarcinoma (MCF-7); assay: cells; assay type: cell-based; conditions: for IC50: read-out: MCF-7 IC50; for SI (MCF-7): SI = IC50 BALB/3T3 / IC50 MCF-7
# Description: (§1) For a more accurate evaluation of cytotoxic activity, the effect on normal murine embryonic fibroblast cell line (BALB/3T3) was also tested according to the previously published procedure. Detailed information concerning antiproliferation assay can be found in Supplementary Materials. […]
# (§2) The antiproliferative activity
# (§3) Four human cancer cell lines and one murine normal cell line were used to evaluate […]
# (§4) (A549), human breast adenocarcinoma (MCF-7), human colon adenocarcinoma cell lines sensitive and resistant to doxorubicin (LoVo), respectively, and normal murine embryonic fibroblast cell line (BALB/3T3). The BALB/3T3 cell line was purchased from the American Type Culture Collection (ATCC, Manassas, VA, USA), A549 and MCF-7 cell lines—from European Collection of Authenticated Cell Cultures (Salisbury, UK), LoVo cell line was purchased from the ATCC (ATCC, Manassas, VA, USA). All the cell lines are maintained in the Institute of Immunology and Experimental Therapy (IIET), Wroclaw, Poland. Human lung adenocarcinoma cell line was cultured in mixture of OptiMEM and RPMI 1640 (1:1) medium (IIET, Wroclaw, Poland), supplemented with 5% fetal bovine serum (GE Healthcare, Logan, UT, USA) and 2 mM L-glutamine (Sigma-Aldrich, Merck KGaA, Saint Louis, MO, USA). Human breast adenocarcinoma cell line was cultured in mixture of Eagle medium (IIET, Wroclaw, Poland), supplemented with 10% fetal bovine serum, 2 mM L-glutamine, 8 μg/mL insulin and 1% amino-acids (Sigma-Aldrich, Merck KGaA, Saint Louis, MO, USA).
# (§5) Human colon adenocarcinoma cell lines were cultured in mixture of OptiMEM and RPMI 1640 (1:1) medium (IIET, Wroclaw, Poland), supplemented with 5% fetal bovine serum (GE Healthcare, Logan UT, USA), 2 mM L-glutamine, 1 mM sodium pyruvate (Sigma-Aldrich, Merck KGaA, Saint Louis, MO, USA). Murine embryonic fibroblast cells were cultured in […]
# (§6) Dulbecco medium (Life Technologies Limited, Paisley, UK), supplemented with 10% fetal bovine serum (GE Healthcare, Logan, UT, USA) and 2 mM glutamine (Sigma-Aldrich, Merck KGaA, Saint Louis, MO, USA). All culture media contained antibiotics: 100 U/mL penicillin and 100 μg/mL streptomycin (Polfa-Tarchomin, Warsaw, Poland). All cell lines were cultured during entire experiment in humid atmosphere at 37 °C and 5% CO2. Cells were tested for mycoplasma contamination by mycoplasma detection kit for conventional […]
# (§7) The procedure is repeated every year or in the case of less frequently used lines:
# (§8) The Antiproliferative Assays In Vitro
# (§9) Twenty-four hours before adding the tested compounds, all cell lines were seeded in 384-well plates (Sarstedt, Nümbrecht, Germany) in appropriate media with 1x103 or 1,5x103
# [2] = tested on: human colon adenocarcinoma cell line (LoVo); assay: cells; assay type: cell-based; conditions: for IC50: LoVo, 72 h, read-out: LoVo IC50; for SI (LoVo): SI = IC50 BALB/3T3 / IC50 LoVo
# Description: as §1, §2, §3, §4, §5, §6, §7, §8, §9
# [3] = tested on: human lung adenocarcinoma (A549); assay: cells; assay type: cell-based; conditions: for IC50: A549, 72 h, read-out: A549 IC50; for SI (A549): SI = IC50 BALB/3T3 / IC50 A549
# Description: as §1, §2, §3, §4, §5, §6, §7, §8, §9
# [4] = tested on: normal murine embryonic fibroblast cell line (BALB/3T3); assay: Antiproliferative assay in vitro (SRB, 72 h), BALB/3T3 normal cells; assay type: cell-based; conditions: normal cell line BALB/3T3, 72 h, mean ± SD
# Description: as §1, §2, §3, §4, §5, §6, §7, §8, §9
# tubulin = tested on: tubulin; parameters: method as in PMID 2708333; conditions: lower affinity relative to colchicine; cited from earlier work
SMILES,"IC50 ([1]; Homo sapiens, MCF7, 72 h)",SI (MCF-7) [1],IC50 ([2]; Homo sapiens),SI (LoVo) [2],IC50 ([3]; Homo sapiens),SI (A549) [3],IC50 ([4]; Mus musculus),further results
"COc1cc2c(c(OC)c1OC)-c1ccc(=O)c(O)cc1[C@@H](NC(C)=O)CC2 [Compound 1, 10-demethylcolchicine]",11200 ± 2520 nM,0.91,6000 ± 1880 nM,1.71,13000 ± 1790 nM,0.79,10200 ± 960 nM,–
"COc1cc2c(c(OC)c1OC)-c1ccc(OC(C)=O)c(=O)cc1[C@@H](NC(C)=O)CC2 [Compound 2a, Acetyl Ester of Colchiceine]",–,–,–,–,–,–,–,melting point: 120 to 122 °C
"COc1cc2c(c(OC)c1OC)-c1ccc(OC(=O)C(C)C)c(=O)cc1[C@@H](NC(C)=O)CC2 [Compound 2c, Isobutyryl Ester of Colchiceine]",–,–,–,–,–,–,–,melting point: 123 to 125 °C
"COc1cc2c(c(O)c1OC)-c1ccc(SC)c(=O)cc1C(NC(C)=O)CC2 (stereo not drawn) [Compound 3, 1-demethylthiocolchicine]",120 ± 50 nM,4.92,110 ± 30 nM,–,820 ± 20 nM,0.74,610 ± 140 nM,–
"COc1cc2c(c(OC(C)=O)c1OC)-c1ccc(SC)c(=O)cc1C(NC(C)=O)CC2 (stereo not drawn) [Compound 4a, Acetyl Ester of 1-demethylthiocolchicine]",100 ± 20 nM,–,110 ± 20 nM,–,480 ± 150 nM,1.36,650 ± 120 nM,–
"CCC(=O)Oc1c(OC)c(OC)cc2c1-c1ccc(SC)c(=O)cc1[C@@H](NC(C)=O)CC2 [Compound 4b, Propionyl Ester of 1-demethylthiocolchicine]",960 ± 130 nM,–,–,–,970 ± 40 nM,–,750 ± 100 nM,–
"COc1cc2c(c(OC(=O)C(C)C)c1OC)-c1ccc(SC)c(=O)cc1[C@@H](NC(C)=O)CC2 [Compound 4c, Isobutyryl Ester of 1-demethylthiocolchicine]",860 ± 100 nM,0.83,560 ± 60 nM,1.27,890 ± 70 nM,0.80,710 ± 30 nM,–
"COc1cc2c(c(OC(=O)c3ccccc3)c1OC)-c1ccc(SC)c(=O)cc1[C@@H](NC(C)=O)CC2 [Compound 4d, Benzyl Ester of 1-demethylthiocolchicine]",780 ± 220 nM,0.58,100 ± 80 nM,4.71,600 ± 310 nM,0.75,450 ± 230 nM,–
"COC(=O)Oc1c(OC)c(OC)cc2c1-c1ccc(SC)c(=O)cc1C(NC(C)=O)CC2 (stereo not drawn) [Compound 4e, Methyl Carbonate of 1-demethylthiocolchicine]",1020 ± 100 nM,0.77,430 ± 190 nM,1.84,900 ± 90 nM,0.87,780 ± 60 nM,–
"CCOC(=O)Oc1c(OC)c(OC)cc2c1-c1ccc(SC)c(=O)cc1[C@@H](NC(C)=O)CC2 [Compound 4f, Ethyl Carbonate of 1-demethylthiocolchicine]",950 ± 200 nM,1.09,790 ± 160 nM,1.31,960 ± 130 nM,1.08,1030 ± 200 nM,–
"N.N.[Cl][Pt][Cl] [cisplatin, reference compound]",–,0.95,–,0.77,–,0.81,–,"IC50 ([1]; MCF-7, 72 h, SRB, mean ± SD): 3050 ± 670 nM; IC50 ([2]; SRB, mean ± SD): 3800 ± 280 nM; IC50 ([3]; SRB, mean ± SD): 3600 ± 250 nM; IC50 [4]: 2910 ± 1830 nM"
"COc1cccc2c1C(=O)c1c(O)c3c(c(O)c1C2=O)C[C@@](O)(C(=O)CO)C[C@@H]3O[C@H]1C[C@H](N)[C@H](O)[C@H](C)O1 [doxorubicin, reference compound]",–,0.26,–,0.49,–,0.25,40 ± 30 nM,"IC50 ([1]; Homo sapiens, MCF7, MCF-7, 72 h, SRB, mean ± SD): 150 ± 50 nM; IC50 ([2]; Homo sapiens, SRB, mean ± SD): 80 ± 30 nM; IC50 ([3]; Homo sapiens, SRB, mean ± SD): 160 ± 30 nM"
COc1cc2c(c(OC)c1OC)-c1ccc(=O)c(OC)cc1[C@@H](NC(C)=O)CC2 [isocolchicine],–,–,–,–,–,–,–,"affinity for binding to tubulin, times lower than colchicine (tubulin): 500 times"
